In patent US9205102B2, “Method for treatment of castration-resistant prostate cancer” (The University of British Columbia, priority 2013, dated 2015):
e = 2'-O-(2-methoxyethyl) (MOE); d = 2'-deoxy (DNA)

Tests used:
Format in all cases: cell-based
[1] = tested on: IGFBP-2 or IGFBP-5 (predominant IGFBP); experiment: Reduction of IGFBP-2 or IGFBP-5 in prostate cancer cell lines in vitro (FIG. 2); details: concentrations of 10 nM to 100 nM
IGFBP-2 = IGFBP-2 level in V16 samples treated with OGX-225; details: V16 samples treated with OGX-225 (10 nM)
MR42D = experiment: Cell viability in enzalutamide resistant cell line MR42D (FIG. 5A); details: compared to a scrambled control
Description: (§1) FIGS. 5A and B show cell viability in enzalutamide resistant cell lines MR42D and MR42F, respectively.
(§2) Tests were performed on androgen sensitive cells line (LNCaP), castrate resistant, enzalutamide-sensitive prostate cancer cell lines V16A and V16D, which were derived from LNCaP cells grown in castrated nude, Matsumoto, H.; Yamamoto, Y.; Shiota, M.; et al. Cancer Res. (2013) 73(16): 5206-17 and Kuruma, H; Matsumoto, H.; Shiota, M. et al. Mol Cancer Ther (2013) 12(5): 567-76; and castrate resistant, enzalutamide-resistant prostate cancer cell lines MR42D, MR49C, and MR49F which were derived from LNCaP cells grown in castrated nude mice treated with enzalutamide at 10 mg/kg PO daily. BPH-1 is an immortal, benign prostatic hyperplasia cell line (Hayward S W, Dahiya R, Cunha G R, et al. (1995). In Vitro Cell Dev Biol Anim 31: 14-24).

MR42F = experiment: Cell viability in enzalutamide resistant cell line MR42F (FIG. 5B); details: compared to a scrambled control
Description: as §1, §2

[2] = tested on: CRPC cell lines exhibiting resistance to enzaluatamide; experiment: Killing of enzalutamide-resistant CRPC cell lines (summary statement); details: enzalutamide-resistant CRPC cell lines overexpressing IGFBP-2 or IGFBP-5
Description: In a further aspect of the invention, a method for treatment of prostate cancer is provided in which an agent effective to reduce expression of IGFBP-2 and IGFBP-5 is administered to a patient suffering from prostate cancer, and particularly CRPC, concurrently with the administration of androgen-receptor antagonist treatments. Administration of the antisense concurrently with the androgen-receptor antagonist treatment reduces selective pressure towards resistance within the cancer cell population and therefore can delay onset of androgen-receptor antagonist resistance as well as directly providing a therapeutic benefit by killing resistant cells.

## OGX-225: bispecific second generation antisense oligonucleotide to IGFBP-2 and IGFBP-5; 20 base phosphorothioate 5-10-5 MOE gapmer, 5′-CAGCAGCCGCAGCCCGGCTC-3′ (sugars from the 5' end e5 d10 e5, all C 5-methyl, all phosphorothioate, T or U not given here)
[1]
  amount of the predominant IGFBP: reduce the amount of the predominant IGFBP in a dose dependent manner
IGFBP-2
  IGFBP-2 level: Reduction in the IGFBP-2 level
MR42D
  cell viability: substantially reduce the viability
MR42F
  cell viability: substantially reduce the viability
[2]
  killing of resistant cells: capable of killing these resistant cells
